Source: ChEMBL document CHEMBL1201862, “PubChem BioAssay data set” (2004)
Activity calls are given as the source filed them. Cut-off read from the data, not from the text of the source, for most assays here: actives have a measured EC50 and inactives only a lower limit.

What was measured:
[1] = Luminescence Cell-Based Dose Confirmation HTS to Identify Inhibitors of Platelet Dense Granule Release. [Related pubchem assays: 1663 (Primary HTS), 1678 (Summary of Project)]; type: functional
[2] = molecular target: Luciferin 4-monooxygenase (Photinus pyralis, UniProt P08659); test: firefly luciferase enzyme inhibitors, dose response, biochemical, luminescence (AID 1891)
Chain of Luciferin 4-monooxygenase (P08659 whole entry): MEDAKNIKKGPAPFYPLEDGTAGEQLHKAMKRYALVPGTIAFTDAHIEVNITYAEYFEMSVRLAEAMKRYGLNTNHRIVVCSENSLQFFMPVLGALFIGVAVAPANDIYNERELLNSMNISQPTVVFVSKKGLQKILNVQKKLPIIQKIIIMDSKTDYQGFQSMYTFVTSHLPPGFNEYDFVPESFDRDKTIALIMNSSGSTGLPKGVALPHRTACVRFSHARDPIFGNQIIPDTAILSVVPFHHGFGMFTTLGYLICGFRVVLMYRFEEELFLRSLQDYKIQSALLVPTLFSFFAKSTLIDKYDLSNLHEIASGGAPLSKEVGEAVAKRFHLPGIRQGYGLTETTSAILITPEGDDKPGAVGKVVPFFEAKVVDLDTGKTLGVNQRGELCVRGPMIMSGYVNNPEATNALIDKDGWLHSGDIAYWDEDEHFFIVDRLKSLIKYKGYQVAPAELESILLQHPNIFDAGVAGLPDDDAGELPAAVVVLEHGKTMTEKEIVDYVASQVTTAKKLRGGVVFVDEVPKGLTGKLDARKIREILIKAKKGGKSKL

[3] = cytotoxicity toward DRD oncogenic fibroblasts, dose response, cell-based, non-viral oncogenic, luminescence (AID 1934); type: functional; settings: Homo sapiens
BJ [4] = test: cytotoxicity toward BJ-TERT-LT-ST fibroblasts, dose response, cell-based, RAS-independent, luminescence (AID 1935); type: functional; settings: Homo sapiens;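 note: BJ fibroblasts immortalized with TERT plus LT and ST oncogenes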
BJ [5] = test: cells; type: functional, cell-based; settings: Homo sapiens
BJ [6] = test: cytotoxicity toward BJ-TERT fibroblasts, dose response, cell-based, RAS-independent, luminescence (AID 1933); type: functional; settings: Homo sapiens
[7] = molecular target: T1, Calpain-2 catalytic subunit (Sus scrofa, UniProt P43367); test: pig calpain II inhibitor potency, dose response, biochemical, fluorogenic peptide substrate (AID 1420); type: functional
T1 sequence (P43367 whole entry): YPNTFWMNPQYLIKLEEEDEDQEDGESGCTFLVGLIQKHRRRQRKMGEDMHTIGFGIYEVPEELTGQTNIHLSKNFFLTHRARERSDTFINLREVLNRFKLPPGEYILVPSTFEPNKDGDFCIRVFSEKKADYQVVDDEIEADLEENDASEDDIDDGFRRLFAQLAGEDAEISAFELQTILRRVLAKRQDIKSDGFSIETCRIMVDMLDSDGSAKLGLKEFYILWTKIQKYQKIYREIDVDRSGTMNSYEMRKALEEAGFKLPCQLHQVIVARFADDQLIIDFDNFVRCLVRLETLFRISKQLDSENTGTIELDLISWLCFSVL

[8] = Luminescence Cell-Based Dose Response HTS to Identify Inhibitors of 5'UTR Stem-Loop Driven Prion Protein mRNA Translation in H4 Neuroglioblastoma Cells. [Related pubchem assays: 1827 (Project Summary), 1813 (Primary HTS)]; type: functional
[9] = inhibitors of SNCA 5'UTR-driven reporter translation, confirmation, H4 neuroglioma cells, luminescence (AID 1988); type: functional, cell-based
[10] = inhibitors of firefly luciferase expression or activity, dose response, H4 neuroglioma cells, luminescence (AID 1990); type: functional, cell-based
Paired box protein Pax-8 = Paired box protein Pax-8 (Homo sapiens, UniProt Q06710); test: inhibitors of PAX8-driven TPO luciferase reporter, dose response, RMG-I cells, cherry-pick (AID 687027); type: functional, cell-based;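 note: luciferase reporter driven by Pax8 target thyroperoxidase promoter measured by SteadyGlo luminescence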
Chain of Paired box protein Pax-8 (Q06710 whole entry): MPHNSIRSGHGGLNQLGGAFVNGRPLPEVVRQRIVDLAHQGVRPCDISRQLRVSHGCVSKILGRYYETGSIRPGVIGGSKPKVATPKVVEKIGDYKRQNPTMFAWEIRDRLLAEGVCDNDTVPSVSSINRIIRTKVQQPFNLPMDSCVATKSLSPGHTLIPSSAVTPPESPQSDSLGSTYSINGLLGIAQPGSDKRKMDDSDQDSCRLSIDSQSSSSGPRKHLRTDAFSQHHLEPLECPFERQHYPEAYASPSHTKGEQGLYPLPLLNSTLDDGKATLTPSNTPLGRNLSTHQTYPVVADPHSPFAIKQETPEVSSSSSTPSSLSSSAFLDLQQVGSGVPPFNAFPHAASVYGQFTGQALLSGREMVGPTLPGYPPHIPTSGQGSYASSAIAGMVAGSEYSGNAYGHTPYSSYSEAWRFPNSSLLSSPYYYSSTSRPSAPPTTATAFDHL

[11] = inhibitors of intracellular T. cruzi replication, confirmation, NIH3T3 host cells, beta-gal luminescence (AID 2044); type: functional, cell-based;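 note: intracellular parasites grown in NIH/3T3 mouse fibroblasts as host cells; luminescent beta-galactosidase reporter signal from transgenic T. cruzi replicating inside host cells; inhibitors lower the luminescence signal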
[12] = cytotoxicity toward NIH3T3 fibroblasts, dose response, counter-screen, cell-based, ATP luminescence, mouse fibroblasts (AID 2010); type: functional;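 note: cells exposed to compound for about 90 hours before reading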
Aminopeptidase N = molecular target: T2, Aminopeptidase N (Plasmodium falciparum FcB1/Columbia, UniProt O96935); test: P. falciparum M1AAP inhibitors, biochemical, fluorogenic H-Leu-NHMec substrate, 1536-well (AID 1445); design: species or system Plasmodium falciparum 3D7, 3D7
T2 sequence (O96935 whole entry): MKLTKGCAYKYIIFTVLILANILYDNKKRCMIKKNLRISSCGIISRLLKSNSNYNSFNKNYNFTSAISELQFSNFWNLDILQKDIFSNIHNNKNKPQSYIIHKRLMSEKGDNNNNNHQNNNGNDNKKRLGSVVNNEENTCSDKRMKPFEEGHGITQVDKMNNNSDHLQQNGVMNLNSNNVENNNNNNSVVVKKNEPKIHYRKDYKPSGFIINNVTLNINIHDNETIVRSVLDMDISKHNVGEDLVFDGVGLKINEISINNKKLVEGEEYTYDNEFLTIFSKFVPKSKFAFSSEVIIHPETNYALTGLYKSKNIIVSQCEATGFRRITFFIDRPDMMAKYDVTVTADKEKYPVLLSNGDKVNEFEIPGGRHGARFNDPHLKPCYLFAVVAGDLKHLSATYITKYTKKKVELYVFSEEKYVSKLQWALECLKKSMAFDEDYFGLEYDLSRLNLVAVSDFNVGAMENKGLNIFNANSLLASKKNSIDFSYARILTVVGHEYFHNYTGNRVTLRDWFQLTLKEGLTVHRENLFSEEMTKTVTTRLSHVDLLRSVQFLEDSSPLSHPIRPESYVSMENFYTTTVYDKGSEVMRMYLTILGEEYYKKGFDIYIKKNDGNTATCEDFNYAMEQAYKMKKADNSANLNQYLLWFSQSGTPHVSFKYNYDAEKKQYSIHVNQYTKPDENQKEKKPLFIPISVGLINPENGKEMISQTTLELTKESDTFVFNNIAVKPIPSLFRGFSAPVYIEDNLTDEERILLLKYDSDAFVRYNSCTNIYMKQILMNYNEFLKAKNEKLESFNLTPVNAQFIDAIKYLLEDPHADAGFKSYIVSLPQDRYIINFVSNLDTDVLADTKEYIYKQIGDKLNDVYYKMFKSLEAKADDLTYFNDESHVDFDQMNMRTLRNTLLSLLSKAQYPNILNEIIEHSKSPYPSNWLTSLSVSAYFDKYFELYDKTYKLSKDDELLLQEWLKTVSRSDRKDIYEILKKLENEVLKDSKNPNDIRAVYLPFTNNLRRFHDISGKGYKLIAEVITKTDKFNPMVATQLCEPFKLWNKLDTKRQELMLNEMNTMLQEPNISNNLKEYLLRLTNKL

[13] = microbe, parasite or virus in culture; type: functional; settings: Mycobacterium tuberculosis
[14] = molecular target: Voltage-dependent T-type calcium channel subunit alpha-1H (Homo sapiens, UniProt O95180); type: functional;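 note: channel activity triggered by adding a high calcium stimulation buffer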
Cytochrome P450 1A2 = molecular target: T3, Cytochrome P450 1A2 (Homo sapiens, UniProt P05177);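 note: PubChem cytochrome P450 panel assay, CYP1A2 panel member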
T3 sequence (P05177 whole entry): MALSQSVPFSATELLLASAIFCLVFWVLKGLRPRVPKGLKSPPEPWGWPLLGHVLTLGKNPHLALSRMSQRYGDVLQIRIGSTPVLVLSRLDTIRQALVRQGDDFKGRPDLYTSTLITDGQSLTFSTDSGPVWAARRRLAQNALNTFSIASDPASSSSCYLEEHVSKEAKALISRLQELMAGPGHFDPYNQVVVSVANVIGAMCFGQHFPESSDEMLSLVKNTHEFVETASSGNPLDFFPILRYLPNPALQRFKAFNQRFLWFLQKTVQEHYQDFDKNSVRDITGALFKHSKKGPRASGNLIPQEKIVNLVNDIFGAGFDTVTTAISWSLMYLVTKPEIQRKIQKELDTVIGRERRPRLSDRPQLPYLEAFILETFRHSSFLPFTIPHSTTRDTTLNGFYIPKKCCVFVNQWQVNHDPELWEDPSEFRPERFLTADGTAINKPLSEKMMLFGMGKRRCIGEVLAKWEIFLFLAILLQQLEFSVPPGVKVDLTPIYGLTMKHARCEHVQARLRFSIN

[15] = molecular target: T4, Mannose-6-phosphate isomerase (Homo sapiens, UniProt P34949); test: human PMI inhibitors, high substrate, primary screen, biochemical, fluorescence intensity, high mannose 6-phosphate (AID 1220)
T4 sequence (P34949 whole entry): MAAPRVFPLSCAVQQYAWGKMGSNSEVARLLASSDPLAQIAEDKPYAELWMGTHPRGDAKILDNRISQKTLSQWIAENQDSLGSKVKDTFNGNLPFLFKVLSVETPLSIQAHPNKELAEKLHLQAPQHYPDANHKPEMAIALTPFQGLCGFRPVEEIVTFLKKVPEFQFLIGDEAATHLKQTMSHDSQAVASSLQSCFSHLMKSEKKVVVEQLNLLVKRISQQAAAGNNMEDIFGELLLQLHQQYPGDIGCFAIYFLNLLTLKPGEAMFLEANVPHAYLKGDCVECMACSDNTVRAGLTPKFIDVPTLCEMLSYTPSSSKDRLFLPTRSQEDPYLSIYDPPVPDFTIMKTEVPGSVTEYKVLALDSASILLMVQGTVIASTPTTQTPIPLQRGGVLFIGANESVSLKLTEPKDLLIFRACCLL

H9c2 = test: cells; type: functional, cell-based; settings: Rattus norvegicus, H9c2, Myocardium;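 note: confirmatory concentration-response retest of ultra-high-throughput screening hits for modulation of myocardial damage; cell death induced by hydrogen peroxide oxidative stress; compound pretreatment for 60 min then peroxide exposure for 2 h; potency is for protecting the cells against peroxide damage rather than for killing them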
[16] = NIH-3T3 fibroblast cytotoxicity, dose response, cytotoxicity control, cell-based, fluorescence, Alamar Blue, secondary assay (AID 2327); type: functional;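 note: NIH-3T3 mouse fibroblasts cultured with fluconazole at 8 µg/mL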
[17] = C. albicans growth with fluconazole, confirmation, fluorescence, retest (AID 2467); type: functional, cell-based
Fatty acid synthase [18] = molecular target: T5, Fatty acid synthase (Homo sapiens, UniProt P49327); test: FAS thioesterase domain inhibitors, dose response, biochemical, kinetic fluorescence intensity (AID 624326); type: functional;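 note: rate of fluorescence rise from hydrolysis of a fluorogenic O-methyl fluorescein ester substrate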
T5 sequence (P49327 whole entry, the tested form may be a part): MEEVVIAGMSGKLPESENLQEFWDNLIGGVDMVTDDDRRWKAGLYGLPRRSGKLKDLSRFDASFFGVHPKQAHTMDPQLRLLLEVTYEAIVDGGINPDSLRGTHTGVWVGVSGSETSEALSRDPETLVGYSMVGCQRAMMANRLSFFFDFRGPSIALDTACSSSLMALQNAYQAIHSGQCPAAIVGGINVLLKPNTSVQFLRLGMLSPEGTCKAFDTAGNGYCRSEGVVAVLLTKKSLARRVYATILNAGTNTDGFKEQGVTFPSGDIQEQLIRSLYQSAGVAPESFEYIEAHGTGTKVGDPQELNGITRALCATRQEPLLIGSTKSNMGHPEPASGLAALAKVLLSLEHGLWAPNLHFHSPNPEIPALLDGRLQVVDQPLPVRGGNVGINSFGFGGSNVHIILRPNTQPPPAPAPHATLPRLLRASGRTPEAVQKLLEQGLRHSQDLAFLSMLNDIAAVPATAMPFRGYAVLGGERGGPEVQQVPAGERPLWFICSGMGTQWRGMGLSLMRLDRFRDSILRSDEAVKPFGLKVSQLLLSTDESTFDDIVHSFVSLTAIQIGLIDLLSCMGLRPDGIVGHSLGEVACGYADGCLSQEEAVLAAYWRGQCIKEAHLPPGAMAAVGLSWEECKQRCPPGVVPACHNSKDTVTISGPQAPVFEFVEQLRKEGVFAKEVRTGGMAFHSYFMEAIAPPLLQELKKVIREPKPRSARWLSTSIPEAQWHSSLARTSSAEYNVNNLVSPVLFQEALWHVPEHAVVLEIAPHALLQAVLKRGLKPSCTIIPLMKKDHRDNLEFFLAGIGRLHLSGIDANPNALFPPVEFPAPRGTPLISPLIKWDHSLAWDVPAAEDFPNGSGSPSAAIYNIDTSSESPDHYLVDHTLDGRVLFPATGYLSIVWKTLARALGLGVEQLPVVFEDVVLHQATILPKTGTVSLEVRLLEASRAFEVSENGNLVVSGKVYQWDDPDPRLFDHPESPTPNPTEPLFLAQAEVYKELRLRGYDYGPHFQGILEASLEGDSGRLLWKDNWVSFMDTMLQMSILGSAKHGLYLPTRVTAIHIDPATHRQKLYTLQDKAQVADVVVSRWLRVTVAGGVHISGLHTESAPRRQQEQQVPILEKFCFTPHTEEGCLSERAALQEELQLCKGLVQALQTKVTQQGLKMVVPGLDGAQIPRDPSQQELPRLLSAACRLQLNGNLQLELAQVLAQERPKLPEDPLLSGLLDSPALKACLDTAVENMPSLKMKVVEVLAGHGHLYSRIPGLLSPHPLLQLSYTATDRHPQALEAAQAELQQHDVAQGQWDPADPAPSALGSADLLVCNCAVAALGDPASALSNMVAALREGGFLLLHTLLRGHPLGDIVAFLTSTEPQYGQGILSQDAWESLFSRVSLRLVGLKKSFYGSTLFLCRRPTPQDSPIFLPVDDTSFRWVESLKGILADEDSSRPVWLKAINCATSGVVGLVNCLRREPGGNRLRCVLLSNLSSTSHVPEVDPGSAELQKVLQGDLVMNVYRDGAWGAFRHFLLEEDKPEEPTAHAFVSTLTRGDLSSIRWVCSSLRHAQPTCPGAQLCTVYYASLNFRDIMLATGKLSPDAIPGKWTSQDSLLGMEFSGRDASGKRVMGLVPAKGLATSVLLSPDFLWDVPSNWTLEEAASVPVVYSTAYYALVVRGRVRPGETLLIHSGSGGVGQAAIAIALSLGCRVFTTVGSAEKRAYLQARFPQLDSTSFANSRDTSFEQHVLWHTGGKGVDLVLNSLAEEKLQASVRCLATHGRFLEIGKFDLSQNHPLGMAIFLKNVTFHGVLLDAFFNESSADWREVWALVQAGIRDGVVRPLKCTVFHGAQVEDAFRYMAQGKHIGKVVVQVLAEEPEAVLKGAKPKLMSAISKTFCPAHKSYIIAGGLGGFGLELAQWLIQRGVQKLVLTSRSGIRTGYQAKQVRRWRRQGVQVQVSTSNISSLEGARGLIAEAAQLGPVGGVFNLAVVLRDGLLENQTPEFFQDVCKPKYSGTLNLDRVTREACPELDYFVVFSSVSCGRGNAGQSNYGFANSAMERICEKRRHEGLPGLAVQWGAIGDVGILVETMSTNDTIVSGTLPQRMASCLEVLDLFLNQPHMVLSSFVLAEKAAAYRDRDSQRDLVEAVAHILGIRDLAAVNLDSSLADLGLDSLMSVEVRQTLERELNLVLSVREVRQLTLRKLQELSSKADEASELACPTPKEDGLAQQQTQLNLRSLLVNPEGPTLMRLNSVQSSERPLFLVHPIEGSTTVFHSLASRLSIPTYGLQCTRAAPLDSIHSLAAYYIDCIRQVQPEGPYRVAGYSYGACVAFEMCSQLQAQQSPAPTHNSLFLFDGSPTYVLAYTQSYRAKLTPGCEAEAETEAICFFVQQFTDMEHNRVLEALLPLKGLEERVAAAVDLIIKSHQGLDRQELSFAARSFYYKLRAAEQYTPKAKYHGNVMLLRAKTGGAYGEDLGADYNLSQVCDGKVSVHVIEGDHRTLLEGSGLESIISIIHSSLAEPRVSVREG

Fatty acid synthase [19] = molecular target: T5, Fatty acid synthase; test: FAS thioesterase domain inhibitors, dose response, biochemical, endpoint fluorescence intensity, uHTS hits (AID 624327); type: functional;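 note: fluorescence from hydrolysis of an O-methyl fluorescein acyl ester substrate by the enzyme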

With `OC[C@H]1O[C@@H](n2cnc3c(NCCc4ccccc4)ncnc32)[C@H](O)[C@@H]1O` the EC50 [1] was 0.893 µM (active), the EC50 [2] was > 112 µM (not active) and the EC50 [3] was 18.9 µM (active). For the same compound, the EC50 (BJ [4]) was > 150 µM (not active), the EC50 (BJ [5]) was 35.4 µM (active) and the EC50 (BJ [6]) was 15.2 µM (inconclusive).

For `Fc1ccccc1COc1ccc(Br)cc1CNCc1ccncc1`, the IC50 [7] was > 50 µM (not active).

In the case of `O=C(NCCN1C(=O)S/C(=C\c2ccc(OC(F)F)cc2)C1=O)c1cnccn1`, the EC50 [8] is reported as 26.3 µM (active), the EC50 [9] is reported as > 120 µM (not active) and the EC50 [10] is reported as > 120 µM (not active). For the same compound, the AC50 (Paired box protein Pax-8) was 15.5 µM (active).

For `CCOc1ccccc1CNC(=O)C1CCN(c2nnc(C)c3c(C)n(-c4ccc(C)cc4)nc23)CC1`, the EC50 [8] was 12.6 µM (active), the EC50 [9] was 9.02 µM (active) and the EC50 [11] was 1.45 µM (active). The EC50 [10] was 8.11 µM (active) and the EC50 [12] was 9.4 µM (active).

For `Cc1ccc(-c2csc3ncnc(SCc4ccc(C(=O)O)cc4)c23)cc1`, the IC50 (Aminopeptidase N) was 44.6 µM (active).

In the case of `O=C(C1=C[C@@H](c2csc3ccccc23)C[C@@H](OCCCCO)O1)N1CCN(Cc2ccc3c(c2)OCO3)CC1`, the CC50 [13] is reported as > 40 µM (active).

For `C=CCN(CC=C)Cc1nc(N)nc(Nc2ccccc2C)n1`, the IC50 [7] was < 0.4 µM (not active).

With `Cc1cc(NC(=S)N(Cc2ccc(Br)cc2)Cc2ccc(C(=O)O)cc2)ccc1Cl` the IC50 [7] was 4.69 µM (not active).

For `CCc1nnc(NS(=O)(=O)c2ccc(NC(=S)NC(=O)c3ccc(Br)cc3)cc2)s1`, the IC50 [7] was 6.7 µM (active).

For `COc1ccc(CNc2nc3ccccc3n2Cc2ccccc2)cc1OC`, the EC50 [14] was 7.3 µM (active) and the AC50 (Cytochrome P450 1A2) was 22.4 µM (inconclusive).

With `CC1(C)CC(=O)c2c(oc3ccc(NS(=O)(=O)c4ccc(C(=O)O)cc4)cc23)C1` the IC50 (Aminopeptidase N) was 26 µM (active).

With `Cc1ccc(NCc2ccc(O)c3ncccc23)cc1C` the IC50 [15] was > 50 µM (not active), the IC50 (H9c2) was > 79 µM (inactive) and the EC50 [16] was > 160 µM (inconclusive). For the same compound, the CC50 [13] was 33.9 µM (active) and the EC50 [17] was > 38 µM (not active).

With `CS(=O)(=O)N1CCc2cc(-c3csc(NC(=O)Cc4ccccc4)n3)ccc21` the EC50 [8] was 20.9 µM (active), the EC50 [9] was > 120 µM (not active) and the EC50 [11] was 1.08 µM (active). For the same compound, the EC50 [10] was > 120 µM (not active), the IC50 (Fatty acid synthase [18]) was 5.12 µM (active) and the EC50 [12] was > 60 µM (not active). For the same compound, the IC50 (Fatty acid synthase [19]) was 8.79 µM (active).
